Patent publication US20170166558A1, “O-GLCNAC TRANSFERASE (OGT) INHIBITORS AND USES THEREOF” (President and Fellows of Harvard College, priority 2014, published 2017)

Key:
OGT in CHO cells = experiment: Markers of OGT inhibition in CHO cells (Nup62 mass shift, OGA levels, H2B-S112 O-GlcNAc); format: cell-based, Chinese hamster
Method: (§1) In vivo inhibition of glycosylation: For all immunoblotting experiments, CHO-K1 (CHO) cells were grown in F12-K media supplemented with 10% FBS and antibiotics at 37° C. in a 5% CO2 incubator. Cells were treated by adding indicated inhibitor in DMSO vehicle (0.5% final vehicle concentration) upon reaching 70% confluence. After indicated treatment length, cells were harvested by aspirating growth media and washing with ice cold 1× PBS. Cells were subsequently lysed in boiling 1% SDS/20 mM HEPES 7.9. After cooling to room temperature, 1 mM PMSF, 10 μM PUGNAC, 10 μM TMG and 1× Complete protease inhibitor cocktail were added to the solution. The mixture was sonicated and then subjected to a 5 minute incubation at 95° C. The samples were centrifuged for 15 minutes at 20,000×g and the supernatant was collected and the total protein was measured by BCA assay (BIO-RAD).
The sample was separated by SDS-PAGE (Bio-Rad 4-15%, Cat: 345-0028), transferred to a nitrocellulose membrane (iBlot, Invitrogen) and probed with the indicated antibody. Tyipcally, membranes were blocked with 4% BSA in 1× TBS+0.04% tween-20 for 1 hour before incubating with antibody (typically diluted 1:1000 in 4% BSA inlx TBS+0.04% tween-20) overnight at 4° C. Membranes were then washed three times with 1× TBS+0.04% tween-20 and incubated with secondary antibody (typically diluted 1:5000 in 4% BSA in 1× TBS+0.04% tween-20) for 1 hour at room temperature. Lastly, membranes were washed 3× with 1× TBS+0.04% tween-20 and imaged with ECL. D283-Med cells were treated as above but grown in F12-K media supplemented with 10% FBS and antibiotics. HEK, HeLa and LNCaP cells were treated as above but grown in RPMI media supplemented with 10% FBS and antibiotics.

[1] = test system: CHO, HEK-293, HeLa and D283-Med cells; experiment: Immunoblotting of global O-GlcNAcylation in various mammalian cell types; format: cell-based; conditions: 50 μM, 24 hours
Method: as §1
The sample was separated by SDS-PAGE (Bio-Rad 4-15%, Cat: 345-0028), transferred to a nitrocellulose membrane (iBlot, Invitrogen) and probed with the indicated antibody. Tyipcally, membranes were blocked with 4% BSA in 1× TBS+0.04% tween-20 for 1 hour before incubating with antibody (typically diluted 1:1000 in 4% BSA inlx TBS+0.04% tween-20) overnight at 4° C. […]

ncOGT = target: T1, ncOGT (Homo sapiens, UniProt O15294); experiment: Radiometric capture assay with Nup62 acceptor and UDP-14C-GlcNAc; format: biochemical
T1 construct: full length human OGT (ncOGT); made in house
T1 sequence (O15294 1-1046): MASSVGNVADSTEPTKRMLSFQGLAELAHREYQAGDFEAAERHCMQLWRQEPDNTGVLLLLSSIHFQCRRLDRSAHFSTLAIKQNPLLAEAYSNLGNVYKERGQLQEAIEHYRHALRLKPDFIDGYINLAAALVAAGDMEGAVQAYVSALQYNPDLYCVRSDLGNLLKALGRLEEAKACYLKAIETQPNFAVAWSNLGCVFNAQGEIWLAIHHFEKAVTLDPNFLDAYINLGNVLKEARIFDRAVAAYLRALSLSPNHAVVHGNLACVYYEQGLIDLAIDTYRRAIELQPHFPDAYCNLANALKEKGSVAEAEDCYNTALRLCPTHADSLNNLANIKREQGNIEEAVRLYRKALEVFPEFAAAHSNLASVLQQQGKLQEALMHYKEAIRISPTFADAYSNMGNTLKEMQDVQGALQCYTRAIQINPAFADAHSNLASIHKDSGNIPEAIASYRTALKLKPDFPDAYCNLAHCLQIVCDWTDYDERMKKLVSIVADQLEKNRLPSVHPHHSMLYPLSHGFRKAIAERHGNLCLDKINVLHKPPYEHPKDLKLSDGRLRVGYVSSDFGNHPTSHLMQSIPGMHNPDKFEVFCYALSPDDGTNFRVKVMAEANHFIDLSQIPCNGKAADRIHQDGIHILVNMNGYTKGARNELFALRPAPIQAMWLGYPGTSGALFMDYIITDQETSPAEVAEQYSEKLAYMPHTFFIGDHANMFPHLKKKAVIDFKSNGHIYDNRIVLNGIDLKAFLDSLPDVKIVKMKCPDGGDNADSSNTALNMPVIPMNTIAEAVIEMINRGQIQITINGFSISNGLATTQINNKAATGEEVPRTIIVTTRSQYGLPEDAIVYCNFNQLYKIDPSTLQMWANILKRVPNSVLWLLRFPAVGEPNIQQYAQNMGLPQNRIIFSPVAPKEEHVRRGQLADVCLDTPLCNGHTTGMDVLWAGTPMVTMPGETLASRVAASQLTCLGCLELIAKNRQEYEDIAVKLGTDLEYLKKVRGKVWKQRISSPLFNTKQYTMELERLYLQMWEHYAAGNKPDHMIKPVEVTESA
Method: Radiometric capture assay: Nucleoporin 62 (Nup62) was used as a model substrate. IC50 values of the both inhibitors were determined at range of 0 to 100 μM (eight point, duplicate). OGT antagonists were tested in a reaction mixture containing 18 μM Nup62, 6 μM UDP-^14C-GlcNAc, 100 nM ncOGT, and lx phosphate-buffered saline (1× PBS) (137 mM NaCl, 2.7 mM KCl, 10 mM Na2HPO4, and 1.8 mM KH2PO4, pH 7.4). The Nup62 glycosylation reactions were run for 15 min at 37° C. Reaction mixtures were subsequently quenched by spottinged on Whatman® Protran® nitrocellulose membrane, washed with 1× PBS three times for 15 minutes each. The membranes were air dried and then counted by liquid scintillation counting. The data were analyzed by Microsoft® Excel and Prism 6 (Graphpad®). Robust non-linear variable slope regressions were generated to determine the IC50 and Hill slope values.
In order to evaluate the mode of inhibition of OSMI-1 and UDP-5S-GlcNAc, a series of experiments, as outlined above, were performed with Nup62 as glycosylation substrate. The inhibition test of OSMI-1 was performed by varying the UDP-^14C-GlcNAc concentration from 0 to 0.25 mM while holding concentration of Nup62 constant at 10 μM with four different concentrations of OSMI-1 (0 to 2 μM) in 1× PBS with 100 nM ncOGT and with fixed and saturating concentrations of GST-Nup62 acceptor. The inhibition test of UDP-5S-GlcNAc was performed by varying the UDP-^14C-GlcNAc concentration from 0 to 1 mM while holding concentration of Nup62 constant at 10 μM with five different concentrations of UDP-5S-GlcNAc (0, 1, 5, 10, and 15 μM) in 1× PBS with 100 nM ncOGT. Each reaction was spotted on Whatman® grade P81 ion exchange chromatography paper circles, washed with 1× PBS three times for 15 minutes each. The membranes were air dried and then counted by liquid scintillation counting. Each assay was duplicated in parallel. The data were analyzed by Microsoft® Excel and Prism 6 (Graphpad®). The Michaelis-Menten plots and Ki of both inhibitors calculated under non-linear regression with competitive inhibition mode are shown in FIG. 5.

COc1ccccc1[C@@H](NS(=O)(=O)c1ccc2[nH]c(=O)ccc2c1)C(=O)N(Cc1ccco1)Cc1cccs1 [OSMI-1, (R)—N-(furan-2-ylmethyl)-2-(2-methoxyphenyl)-2-(2-oxo-1,2-dihydroquinoline-6-sulfonamido)-N-(thiophen-2-ylmethyl)acetamide]
Cellular OGA levels (OGT in CHO cells): reduced cellular OGA | Nup62 mass shift (OGT in CHO cells): shift to a lower molecular weight | O-GlcNAc modification of histone H2B-S112 (OGT in CHO cells): greatly reduced | Global O-GlcNAc levels in four cell lines [1]: reduce global O-GlcNAc levels in all four lines examined | IC50 (ncOGT; 6 μM UDP-GlcNAc, 18 μM GST-Nup62): 3000 nM | Ki (ncOGT; non-linear regression, competitive inhibition fit, Nup62 substrate, read-out: Inhibition constant (Ki)): 400 nM
